Where “and” joins values, the source holds several entries; their conditions need not be identical. Equal values may be shown once. Where no end group is shown, it is not given here. [ ]: non-standard residue; d: D form.
Biological target: Ghrelin/GHRP/GHS Receptor (Rattus norvegicus, UniProt O08725)
Assay: GH release from cell culture of pituitary cells
Format: cell-based
Design: After dispersion, the cells were collected by centrifugation, wash with DMEM and placed into culture well; endogenous in cells; host or cells: dispersed primary rat pituitary cells, 4 days in culture
Details: for Unstimulated Basal GH release: Table 8
Procedure: In vitro GH Release-Female rats of the CD-1 strain were housed in a constant temperature room at 24° C. with 14 h light and 10 h darkness. The rats were fed Purina Rat chow and water at libitum. All studies were started between 0800-1000 hours. Pituitaries of mature female Sprague Dawley rats were rapidly removed after decapitation, neurointermediate lobe discarded and then placed in a pH 7.4 buffer. The pituitaries were cut into ˜3-mm pieces and then transferred to a flask containing HEPS buffer with trypsin and incubated at 37° C. Cells were triturated several times during this period. After dispersion, the cells were collected by centrifugation, wash with DMEM and placed into culture well. Cell cultures were maintained for 4 days at 37° with 8% CO2 added to the incubator atmosphere. After 4 days in culture, cells were washed with lactated Ringer's solution adjusted to pH 7.2-7.4 and then vehicle, peptide alone or peptide plus stimulator was added to media. Incubation time was 60-120 minutes after which media was removed from each well for GH determination. The GH RIA reagents were distributed by the NIH. Control data was collected from cell cultures treated with only the corresponding vehicle in the absence of peptide or stimulator. Control stimulated data was collected from cell cultures treated with stimulator alone in the absence of any peptide.

[1] = Table 10, compound 10 μg/ml + stimulator 1 ng/ml
[2] = Table 10, compound 30 μg/ml + stimulator 1 ng/ml
[3] = Table 10, compound alone 10 μg/ml
[4] = Table 10, compound alone 30 μg/ml
[5] = Table 10, compound 3 μg/ml + stimulator 1 ng/ml
[6] = Table 10, compound alone 3 μg/ml
[7] = Table 11, compound 10 μg/ml + stimulator 1 ng/ml
[8] = Table 11, compound 30 μg/ml + stimulator 1 ng/ml
[9] = Table 11, compound alone 10 μg/ml
[10] = Table 11, compound alone 30 μg/ml

Sequence of Ghrelin/GHRP/GHS Receptor (O08725 whole entry): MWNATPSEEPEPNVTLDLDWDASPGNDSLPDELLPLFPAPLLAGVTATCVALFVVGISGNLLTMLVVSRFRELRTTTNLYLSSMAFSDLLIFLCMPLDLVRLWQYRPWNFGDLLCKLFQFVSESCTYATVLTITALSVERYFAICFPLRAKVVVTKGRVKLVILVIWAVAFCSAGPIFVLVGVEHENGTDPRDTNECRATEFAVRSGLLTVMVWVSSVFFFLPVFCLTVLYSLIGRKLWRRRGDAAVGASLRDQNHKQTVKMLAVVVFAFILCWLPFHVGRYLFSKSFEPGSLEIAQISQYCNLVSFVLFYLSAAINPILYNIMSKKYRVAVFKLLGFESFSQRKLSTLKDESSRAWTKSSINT

C=C(C)CON=C(c1ccccc1)c1ccccc1 [5-O-(2-methylallyl) benzophonone oxime, O-(2-methylallyl) benzophonone oxime]
Stimulated GH release (P + S) [1]: 1281 ± 58 ng/mL
Stimulated GH release (P + S) [2]: 699 ± 53 ng/mL
Unstimulated GH release [3]: 929 ± 28 ng/mL
Unstimulated GH release [4]: 616 ± 23 ng/mL

COc1ccccc1N1CCN(C(=O)c2cc3ccccc3cc2C(=O)N2CCN(c3ccccc3OC)CC2)CC1 [2,3-di[N-(2-methoxylphenyl)piperazyl-naphthalenecarboxylamide]
Stimulated GH release (P + S) (Table 10, compound 1 μg/ml + stimulator 1 ng/ml): 654 ± 18 ng/mL
Stimulated GH release (P + S) [5]: 442 ± 4 ng/mL
Stimulated GH release (P + S) [1]: 537 ± 28 ng/mL and 648 ± 16 ng/mL
Stimulated GH release (P + S) [2]: 309 ± 46 ng/mL
Unstimulated GH release (Table 10, compound alone 1 μg/ml): 338 ± 3 ng/mL
Unstimulated GH release [6]: 204 ± 10 ng/mL
Unstimulated GH release [3]: 262 ± 4 ng/mL and 136 ± 11 ng/mL
Unstimulated GH release [4]: 118 ± 8 ng/mL

Ac-DβNal-DTrp-NH2 [2-Ac-DβNal-DTrp-NH2]
Unstimulated Basal GH release (peptide 3 μg/ml): 1264 ± 2 ng/mL
Unstimulated Basal GH release (peptide 10 μg/ml): 980 ± 72 ng/mL
Unstimulated Basal GH release (peptide 30 μg/ml): 699 ± 7 ng/mL

CC(C)(N)C(=O)N[C@H](COCc1ccccc1)C(=O)N1CCN(c2ccccc2)CC1 [αAibDSer(BZL)-N′-phenyl-N-piperazinamide]
Stimulated GH release (P + S) [1]: 878 ± 30 ng/mL
Stimulated GH release (P + S) [2]: 510 ± 15 ng/mL
Unstimulated GH release [3]: 777 ± 34 ng/mL
Unstimulated GH release [4]: 499 ± 18 ng/mL

[dF]W[dF]FM-NH2 [13-DPhe-Trp-DPhe-Phe-Met-NH2]
Unstimulated Basal GH release (peptide 3 μg/ml): 1146 ± 34 ng/mL
Unstimulated Basal GH release (peptide 10 μg/ml): 1086 ± 32 ng/mL
Unstimulated Basal GH release (peptide 30 μg/ml): 871 ± 89 ng/mL

COC(=O)c1cc2ccccc2cc1C(=O)Nc1ccc(C)cc1 [2-[methylester]-3-[p-methylphenylamidenaphthalenecarboxylamide]
Stimulated GH release (P + S) [7]: 1149 ± 33 ng/mL
Stimulated GH release (P + S) [8]: 886 ± 29 ng/mL
Unstimulated GH release [9]: 754 ± 32 ng/mL
Unstimulated GH release [10]: 498 ± 26 ng/mL

Ser(Bzl)Lys(Ac)DTrp-p-phenylpiperidinamide
Stimulated GH release (P + S) [1]: 571 ± 32 ng/mL
Stimulated GH release (P + S) [2]: 399 ± 24 ng/mL
Unstimulated GH release [3]: 388 ± 41 ng/mL
Unstimulated GH release [4]: 273 ± 39 ng/mL

H[dW][dW]K-NH2 [1-His-DTrp-DTrp-Lys-NH2]
Unstimulated Basal GH release (peptide 3 μg/ml): 1124 ± 37 ng/mL
Unstimulated Basal GH release (peptide 10 μg/ml): 749 ± 10 ng/mL
Unstimulated Basal GH release (peptide 30 μg/ml): 615 ± 41 ng/mL

CCOC(=O)c1cc2ccccc2cc1C(=O)Nc1cccc(OC)c1 [2-[ethylester-3-m-methoxylphenylamide] naphthalene carboxylamide]
Stimulated GH release (P + S) [7]: 670 ± 32 ng/mL
Stimulated GH release (P + S) [8]: 458 ± 15 ng/mL
Unstimulated GH release [9]: 698 ± 18 ng/mL
Unstimulated GH release [10]: 552 ± 20 ng/mL

Benzamide-DSerDLysTrp-p-phenylpiperidinamide
Stimulated GH release (P + S) [5]: 432 ± 25 ng/mL
Stimulated GH release (P + S) [1]: 353 ± 10 ng/mL
Unstimulated GH release [6]: 393 ± 54 ng/mL
Unstimulated GH release [3]: 369 ± 30 ng/mL

[dK]Y[dW][dW]F-NH2 [8-DLys-Tyr-DTrp-DTrp-Phe-NH2]
Unstimulated Basal GH release (peptide 1 μg/ml): 1451 ± 19 ng/mL
Unstimulated Basal GH release (peptide 3 μg/ml): 1175 ± 77 ng/mL
Unstimulated Basal GH release (peptide 10 μg/ml): 1129 ± 6 ng/mL
Unstimulated Basal GH release (peptide 30 μg/ml): 744 ± 44 ng/mL

2-[acetylester]-3-(p-m-methoxyl phenyl) piperidinamide]-naphthalene carboxamide
Stimulated GH release (P + S) [1]: 480 ± 9 ng/mL
Stimulated GH release (P + S) [2]: 223 ± 22 ng/mL
Unstimulated GH release [3]: 373 ± 2 ng/mL
Unstimulated GH release [4]: 176 ± 11 ng/mL

γAbuDTrp-p-[m-methoxyphenyl] piperidinamide
Stimulated GH release (P + S) [7]: 526 ± 27 ng/mL
Stimulated GH release (P + S) [8]: 428 ± 22 ng/mL
Unstimulated GH release [9]: 557 ± 19 ng/mL
Unstimulated GH release [10]: 378 ± 18 ng/mL

DAla-DcyclohexylAla-Ala-Ala-Phe-DPhe-Nle-NH2
Unstimulated Basal GH release (peptide 1 μg/ml): 286 ± 75 ng/mL
Unstimulated Basal GH release (peptide 3 μg/ml): 177 ± 44 ng/mL
Unstimulated Basal GH release (peptide 10 μg/ml): 271 ± 38 ng/mL
Unstimulated Basal GH release (peptide 30 μg/ml): 376 ± 28 ng/mL

— US9315546B2, “Growth hormone secretatogue receptor antagonists and uses thereof” (The Administrators of the Tulane Educational Fund, priority 2010, dated 2016)
